“And” between values parts separate entries of the source, which are not always exact repeats. Identical values can stand only once.
Columns and labels:
[1] = tested on: NF-κB; experiment: Reporter-gene assay for NF-κB; type: cell-based, mouse; design: NF-κB luciferase expression (fig. 6c): unit not given here; details: for NF-κB luciferase expression (fig. 6c): sRANKL stimulated; for reporter signal (fig. S3h): three replicates
Method: In order to investigate the NF-κB and NFAT transcriptional inhibition activity of selective sRANKL inhibitor, luciferase reporter gene assays were used[57]. RAW 264.7 cells stably transfected with an NF-κB luciferase reporter gene (3κB-Luc-SV40) or NFAT luciferase reporter gene were seeded into 96-well plates at a density of 1.5 × 10^5 or 1.0 × 10^5 cell per well respectively for 24 h. Cells were pretreated with compounds for 1 h, and then stimulated with sRANKL (100 ng/mL), TNF-ɑ (20 ng/mL), […] (50 ng/mL) and LPS (500 ng/mL) for 6 h for NF-κB transcriptional or 24 h for NFAT transcriptional. After treatment both cells were lysed and measured luciferase activity using a Promega Luciferase Assay system (Promega Corporation) by a Varioskan flash Multimode Microplate Reader (Thermo Scientific).

[2] = tested on: OVX mice; experiment: Osteoporosis therapeutic study in OVX mice (micro-CT); type: in vivo, mouse; details: S3-15 10 mg/kg/day 4 weeks, individual animals
Method: Female SD rats or C57BL/6 mice were cared until they grown up to 6 months old or 10 weeks old, respectively. Then we subjected them to either bilateral ovariectomy or sham operation after anesthesia with 10% chloral hydrate (0.3 mL/100 g). Then all the rats or mice were intramuscular injected of penicillin to prevent infection in the first week of surgery. For rat experiments, after 12 weeks of operation, 3 rats from sham-operated or ovariectomized groups were random selected to determine bone mass by micro-CT imaging biopsy to verify successful produced bone loss(data unshown). Then the OVX rats were individually administrated with S3-15, S3, and S3-05 orally with (10 mg/kg/day) for another 12 weeks. For mouse experiments, after 4 weeks of surgery, the OVX mice were treated with 10 mg/kg/day S3-15 for another 4 weeks.
The weight of rats or mice were recorded every week in the treatment period. After treatment, the rats were harvested, the serum, heart, liver, spleen, lung, kidney, thymus, and femurs were all collected and subjected to subsequent analysis. The right femurs of rats or mice were cleaned excess soft tissue, fixed in 10% formalin, and processed them for microcomputed tomography (micro-CT) analysis. Left mice femurs were collected and excarnate for biomechanical strength testing. Mice peripheral blood were as well as collected for flow cytometry analyzing.
The right femurs of rats or mice were further analyzed with micro-CT on Inveon PET/CT (Siemens, Germany). We used micro-CT to scan the femur from the femoral head to the femoral condyle, using 19 μm resolution, 80 kV 500uA, 360 projection, 3000-6000 image threshold, full rotation cone beam. Three-dimensional reconstruction and histomorphometric analyses of trabecular bone were conducted with the IAW (Inveon analysis workstation) analysis software. […] Trabecular bone parameters were measured including bone volume/tissue volume (BV/TV), bone surface area/bone volume (BS/BV), trabecular number (Tb.N), trabecular thickness (Tb.Th), trabecular separation(Tb.Sp) and trabecular pattern factor(Tb.P.F).

[3] = tested on: OVX mice; experiment: Splenic lymphocyte transformation test; type: in vivo, mouse; design: key: OD (MTT) of stimulated minus unstimulated cells; details: OVX mice + S3-15 4 weeks, individual animals
Method: Spleens were aseptically isolated from sham group, OVX group and OVX treatment group after treating S3-15 for 4 weeks in a clean bench (II Class biosafety Cabinets, Escolifesciences, Singapore). Splenic single cell suspensions were obtained by gentle squeezing spleen tissue by injecting 2 mL cold Hank’s solution. Splenic cells were filtered through 40 μm nylon filters (BD Biosciences, Darmstadt, Germany), and centrifuged at 1400 × g for 10 min. Then cells were resuspended in 1640 completed medium (containing 10%FBS, 1% penicillin/streptomycin, 1% glutamine (200 mmol/L) and 5 × 10^−5 mol/L 2-mercaptoethanol) with a concentration of 5 × 10^6 cells/mL and seeded 100 μL into 96-well plates. Two wells for each mouse, and one well stimulated with 50 μL […] (Sigma-Aldrich®, Germany) solution (working concentration 7.5 μg/mL in 1640 completed medium), another well added 50 μL 1640 complete medium as a control. After that, the plates were incubated at 37 °C in a CO2 incubator at 5% CO2 for 72 h. After stimulation, cells were measured by MTT method. Stimulation of cell proliferation ability was determined as the absorbance (OD) value of stimulated minus unstimulated cells for each cell sample.

[4] = tested on: OVX mice; experiment: Mice peripheral blood T lymphocyte subsets analysis; type: in vivo, mouse; details: OVX mice + S3-15 4 weeks, individual animals
Excerpt: In order to study the effect of S3-15 on the immune system, after 4 weeks of S3-15 treatment, orbital venous blood with EDTA-anticoagulated was collected for T lymphocyte subsets analysis in osteoporosis mice. We used flow cytometric to determinate T lymphocyte subsets according to the guidelines for Flow Cytometric of Beckman Coulter, FC500. Cells were stained according to manufacturer’s instruction of PE-Cyanine7 anti-Human CD8a and PE anti-Human CD4 antibodies (Tonbo Biosciences). Data analyzing was performed by using CXP software (Beckman Coulter, Supplementary Fig. 9).

## CC(=O)/C(=N\Nc1ccccc1C(=O)O)C(=O)Nc1ccccn1 [S3-15]
[1]; IL-1β stimulated + S3-15
  luciferase activity (fig. S3g, taken as NF-κB): 748200 and 847300 and 792000
[1]; LPS stimulated + S3-15
  luciferase activity (fig. S3g, taken as NF-κB): 375600 and 397200 and 396100
[1]; TNF-α stimulated + S3-15
  luciferase activity (fig. S3g, taken as NF-κB): 61380 and 70860 and 74440
[1]; S3-15 conc. 0.08
  NF-κB luciferase expression (fig. 6c): 32.0377 and 29.8492 and 26.4557
[1]; S3-15 conc. 0.28
  NF-κB luciferase expression (fig. 6c): 25.9787 and 28.8312 and 30.4836
[1]; S3-15 conc. 0.92
  NF-κB luciferase expression (fig. 6c): 26.259 and 24.0852 and 28.8361
[1]; S3-15 conc. 3.03
  NF-κB luciferase expression (fig. 6c): 25.0885 and 25.1918 and 25.4328
[1]; S3-15 conc. 10
  NF-κB luciferase expression (fig. 6c): 23.5738 and 23.8492 and 23.6426
[1]; S3-15 conc. 33
  NF-κB luciferase expression (fig. 6c): 17.4311 and 18.5918 and 15.8918
[1]; stimulus IL-1β
  reporter signal (fig. S3h): 348400 and 323800 and 307900
[1]; stimulus LPS
  reporter signal (fig. S3h): 720100 and 801600 and 826800
[1]; stimulus TNF-α
  reporter signal (fig. S3h): 62390 and 81670 and 85200
[1]; without RANKL
  TNF-α, IL-β and LPS activated NF-κB: cannot affect
[2]
  BV/TV: 0.134 and 0.2459 and 0.2549 and 0.1314 and 0.1319 and 0.1667 and 0.09144 and 0.215
  Tb.N: 3.01 1/mm and 5.848 1/mm and 5.596 1/mm and 2.742 1/mm and 2.832 1/mm and 3.86 1/mm and 1.833 1/mm and 4.649 1/mm
  Tb.Th: 0.0445 mm and 0.04205 mm and 0.04556 mm and 0.04792 mm and 0.04659 mm and 0.04318 mm and 0.04987 mm and 0.04624 mm
[3]
  Spleen lymphocyte transforming index: 0.337 and 0.404 and 0.3367 and 0.4323 and 0.2993 and 0.3783 and 0.2337 and 0.316
[4]
  CD3+, % in peripheral lymphocyte: 36.27% and 37.35% and 37.5% and 36.96% and 36.85% and 38.5% and 35.97% and 34.6%
  CD3+CD4+, % in CD3+ T cell: 61.95% and 60.18% and 56.07% and 64.9% and 64.44% and 61.9% and 58.71% and 64.19%
  CD3+CD4+, % in peripheral lymphocyte: 22.2% and 22.32% and 20.69% and 23.69% and 23.71% and 23.61% and 23.29% and 21.4%
  CD3+CD8+, % in CD3+ T cell: 30.94% and 33.61% and 35.99% and 30.67% and 29.41% and 32.61% and 35.04% and 29.24%
  CD3+CD8+, % in peripheral lymphocyte: 11.41% and 12.7% and 13.52% and 11.4% and 10.94% and 12.69% and 10.21% and 10.64%
  CD4+, % in peripheral lymphocyte: 22.3% and 22.29% and 20.64% and 23.66% and 23.37% and 23.65% and 23.23% and 21.42%
  CD8+, % in peripheral lymphocyte: 11.28% and 12.51% and 13.34% and 11.29% and 10.72% and 12.52% and 9.72% and 10.53%
[4]; ratio
  CD4+/CD8+ in CD3+ T cell: 2.002 and 1.791 and 1.558 and 2.116 and 2.191 and 1.898 and 1.676 and 2.195
  CD4+/CD8+ in peripheral lymphocyte: 1.946 and 1.757 and 1.53 and 2.078 (2×) and 2.167 and 1.861 and 2.011
